Laboratory results reported in patent EP4711356A1, “TETRAHYDROCARBAZOLE DERIVATIVE, PHARMACEUTICAL COMPOSITION, AND USE THEREOF” (Nain Biotech (Hangzhou) Co., Ltd., priority 2023, dated 2024).
pIC50: −log10 of the molar value.

Columns and labels:
[1] = system: HeLa cells; assay: Cell-based pharmacodynamic assay (CellTiter-Glo proliferation inhibition), HeLa; conditions: human cervical cancer HeLa cells; 72 hours incubation; CellTiter-Glo luminescence; read-out: IC50 against HeLa cells
Method in brief: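 Cells seeded overnight in line-specific media with FBS, then dosed from DMSO stocks (20 mM stock) for 72 h at 37 °C, 5% CO2. Viability by CellTiter-Glo luminescence; inhibition normalised to DMSO and blank wells, IC50 from four-parameter fit.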

[2] = Cell-based pharmacodynamic assay (CellTiter-Glo proliferation inhibition), tumor cell line panel; conditions: Homo sapiens; one range stated for all 22 listed ovarian, liver, lung, melanoma, pancreatic, colorectal, renal, prostate, gastric, tongue, leukemia and rhabdomyosarcoma cell lines
Description: Complete media such as RPMI 1640 (Gibco, A1049101), EMEM (ATCC, 30-2003), DMEM (Gibco, C11995500CP), McCoy's 5A (Gibco, 16600082), and F-12K (ATCC, 30-2004) were prepared by supplementing with varying concentrations of FBS (Biological Industries, 04-002-1A) and 1% Penicillin-Streptomycin (Gibco, 15140122) and was thoroughly mixed. Tumor cell lines including HeLa (ATCC, CCL-2; EMEM + 10% FBS), TOV-21G (Cobioer, CBP60292; 1:1 mixture of MCDB 105 and Medium 199 + 15% FBS), OVCAR-3 (ATCC, HTB-161; RPMI 1640 + 20% FBS + 0.01 mg/ml bovine insulin), SK-OV-3 (ATCC, HTB-77; McCoy's 5A + 10% FBS), A2780 (Cobioer, CBP60283; RPMI 1640 + 10% FBS), OC316 (Cobioer, CBP60620; RPMI 1640 + 10% FBS), HuH-7 (Cobioer, CBP60202; DMEM + 10% FBS), SNU-398 (ATCC, CRL-2233; RPMI 1640 + 10% FBS), NCI-H2286 (ATCC, CRL-5938; RPMI 1640 + 5% FBS), NCI-H82 (ATCC, HTB-175; RPMI 1640 + 10% FBS), A549 (ATCC, CCL-185; F-12K + 10% FBS), SK-MEL-3 (ATCC, HTB-69; McCoy's 5A + 15% FBS), PSN-1 (Cobioer, CBP61215; RPMI 1640 + 10% FBS), LoVo (ATCC, CCL-229; F-12K + 10% FBS), DLD-1 (ATCC, CCL-221; RPMI 1640 + 10% FBS), HCT-15 (ATCC, CCL-225; RPMI 1640 + 10% FBS), A498 (ATCC, HTB-44; EMEM + 10% FBS), LNCaP (ATCC, CRL-1740; RPMI 1640 + 10% FBS), SNU-1 (ATCC, CRL-5971; RPMI 1640 + 10% FBS), SCC-9 (Cobioer, CBP60428; DMEM/F12 (1:1) + 10% FBS + 0.5 mM sodium pyruvate + 400 ng/ml hydrocortisone), SU-DHL-5 (ATCC, CRL-2958; RPMI 1640 + 10% FBS), Toledo (ATCC, CRL-2631; RPMI 1640 + 10% FBS), and SJCRH30 (ATCC, CRL-2061; RPMI 1640 + 10% FBS) were thawed. Cells were passaged approximately twice, and those in good growth condition (typically passages 4-6) were selected for experiments. The medium was aspirated, and the cells were washed once with 0.25% trypsin (Invitrogen, 25200-072). The waste liquid was discarded, and 3 mL of fresh trypsin was added to the culture flask for digestion. […] The plates were placed in an Enspire reader (luminescence measurement time: 0.5 s) to record luminescence results. […]

[3] = system: HeLa cell line; conditions: compared to the control drug ellipticine; Tunbridge et al., 2013; cited from earlier work

Compound | pIC50 [1] | pIC50 [2] | inhibitory activity against the HeLa cell line [3]
CCOC(=O)c1cccc2[nH]c3c(c12)CCCC3=O [Compound B16] | ≥ 6.70 | 5.00 to 6.70 | –
Cn1ncc(-c2cccc3[nH]c4c(c23)CCCC4=O)n1 [Compound B67] | ≥ 6.70 | 5.00 to 6.70 | –
CCCCCC(=O)n1c2c(c3c(C(=O)OCC)cccc31)CCCC2=O [Compound C05] | ≥ 6.70 | 5.00 to 6.70 | –
Cc1ccc2[nH]c3c(c2c1)CCCC3=NC1CCN(CC(F)(F)F)CC1 [Compound E42] | ≥ 6.70 | – | –
Cc1ccc2[nH]c3c(c2c1)CCCC3=NC1CCN(S(=O)(=O)C(C)C)CC1 [Compound E43] | ≥ 6.70 | – | –
Cc1ccc2[nH]c3c(c2c1)CCCC3=NC(C)C(=O)OC(C)(C)C (stereo not drawn) [Compound E44] | ≥ 6.30 | – | –
COCCN=C1CCCc2c1[nH]c1ccc(C)cc21 [Compound E45] | ≥ 6.70 | – | –
COCCOC1CCC(N=C2CCCc3c2[nH]c2ccc(C)cc32)CC1 (stereo not drawn) [Compound E46] | ≥ 6.70 | – | –
COC(=O)c1cccc2[nH]c3c(c12)CCCC3=NC(C)C [Compound E47] | ≥ 6.70 | – | –
CCN=C1CCCc2c1[nH]c1cccc(C(=O)OC)c21 [Compound E48] | ≥ 6.70 | – | –
Cc1ccc2[nH]c3c(c2c1)C(C)CCC3=NCC(=O)OC(C)(C)C (stereo not drawn) [Compound E49] | ≥ 6.30 | – | –
Cc1ccc2[nH]c3c(c2n1)CCCC3=NCCO [Compound E50] | ≥ 6.70 | – | –
Cc1cccc2[nH]c3c(c12)CCCC3=NCC(=O)OC(C)(C)C [Compound E52] | ≥ 6.70 | – | –
Cc1cccc2[nH]c3c(c12)CCCC3=NCCO [Compound E54] | ≥ 6.70 | – | –
Cc1ccc2[nH]c3c(c2c1)CCCC3=NC(CC(=O)OC(C)(C)C)C(=O)OC(C)(C)C (stereo not drawn) [Compound E55] | ≥ 6.70 | – | –
Cc1ccc2[nH]c3c(c2c1)CCCC3=NC(C(=O)OC(C)(C)C)C(C)C (stereo not drawn) [Compound E56] | ≥ 6.70 | – | –
CCCCCN=C1CCCc2c1[nH]c1ccc(C)cc21 [Compound E57] | ≥ 6.70 | – | –
COC(=O)c1cccc2[nH]c3c(c12)CCCC3=NCC(C)(C)O [Compound E61] | ≥ 6.70 | – | –
COC(=O)c1cccc2[nH]c3c(c12)CCCC3=NC1CCN(C)CC1 [Compound E62] | ≥ 6.70 | – | –
CCC(CO)N=C1CCCc2c1[nH]c1ccc(C)cc21 (stereo not drawn) [Compound E63] | ≥ 6.30 | – | –
CCC(CO)N=C1CCCc2c1[nH]c1ccc(C)cc21 (stereo not drawn) [Compound E64] | ≥ 6.30 | – | –
Cc1ccc2[nH]c3c(c2c1)CCCC3=NC1CCN(CC(F)(F)F)CC1C (stereo not drawn) [Compound E65] | ≥ 6.70 | – | –
Cc1ccc2[nH]c3c(c2c1)CCCC3=NC1CCN(S(=O)(=O)C(C)C)CC1C (stereo not drawn) [Compound E66] | ≥ 6.70 | – | –
Cc1ccc2[nH]c3c(c2c1)CCCC3=NCCNC(=O)OC(C)(C)C [Compound E67] | ≥ 6.70 | – | –
Cc1ccc2[nH]c3c(c2c1)CCCC3=NCCN [Compound E68] | ≥ 6.70 | – | –
COC(=O)c1cccc2[nH]c3c(c12)CCCC3=NC(C)C(F)(F)F (stereo not drawn) [Compound E69] | ≥ 6.70 | – | –
COC(=O)c1cccc2[nH]c3c(c12)CCCC3=NC(C)C(F)(F)F (stereo not drawn) [Compound E70] | ≥ 6.70 | – | –
CSCCC(N=C1CCCc2c1[nH]c1ccc(C)cc21)C(=O)OC(C)(C)C (stereo not drawn) [Compound E71] | ≥ 6.70 | – | –
CN=C1CCCc2c1[nH]c1cccc(C(=O)OC)c21 [Compound E72] | ≥ 6.70 | – | –
COc1cc2c(c(N)c1OC)C(=O)/C(=C\c1cc(C)c(O)c(C)c1)C2 [indanocine] | – | – | superior inhibitory activity
